Test results as given in ChEMBL document CHEMBL3044921, “Synthesis, characterization, and SAR studies of new (1H-indol-3-yl)alkyl-3-(1H-indol-3-yl)propanamide derivatives as possible antimicrobial and antitubercular agents” (2013).
≈ marks a conversion by molar mass, not a printed value.

Experiments:
Talaromyces marneffei [1] = test: Antifungal activity against Talaromyces marneffei assessed as growth inhibition at […] to […] ug/ml after 3 to 4 days by agar well diffusion method; assay type: functional
Aspergillus fumigatus [2] = test: Antifungal activity against Aspergillus fumigatus NCIM 902 assessed as growth inhibition at […] to […] ug/ml after 3 to 4 days by agar well diffusion method; assay type: functional
Aspergillus flavus [3] = test: Antifungal activity against Aspergillus flavus NCIM 524 assessed as growth inhibition at […] to […] ug/ml after 3 to 4 days by agar well diffusion method; assay type: functional
Candida albicans [4] = test: Antifungal activity against Candida albicans assessed as growth inhibition after 3 to 4 days by serial plate dilution method; assay type: functional
[5] = test system: Trichophyton mentagrophytes; test: Antifungal activity against Trichophyton mentagrophytes assessed as growth inhibition after 3 to 4 days by serial plate dilution method; assay type: functional
Talaromyces marneffei [6] = test: Antifungal activity against Talaromyces marneffei assessed as growth inhibition after 3 to 4 days by serial plate dilution method; assay type: functional
Aspergillus fumigatus [7] = test: Antifungal activity against Aspergillus fumigatus NCIM 902 assessed as growth inhibition after 3 to 4 days by serial plate dilution method; assay type: functional
Aspergillus flavus [8] = test: Antifungal activity against Aspergillus flavus NCIM 524 assessed as growth inhibition after 3 to 4 days by serial plate dilution method; assay type: functional
Streptococcus pyogenes [9] = assay type: functional
Description: Antibacterial activity against Streptococcus pyogenes assessed as growth inhibition at 1.56 to 25 ug/ml after 3 to 4 days by agar well diffusion method

Klebsiella pneumoniae [10] = assay type: functional
Description: Antibacterial activity against Klebsiella pneumoniae assessed as growth inhibition at 1.56 to 25 ug/ml after 3 to 4 days by agar well diffusion method

Pseudomonas aeruginosa [11] = assay type: functional, ATCC 27853
Description: Antibacterial activity against Pseudomonas aeruginosa ATCC 27853 assessed as growth inhibition at 1.56 to 25 ug/ml after 3 to 4 days by agar well diffusion method

Staphylococcus aureus [12] = assay type: functional, ATCC 25923
Description: Antibacterial activity against Staphylococcus aureus ATCC 25923 assessed as growth inhibition at 1.56 to 25 ug/ml after 3 to 4 days by agar well diffusion method

Streptococcus pyogenes [13] = test: Antibacterial activity against Streptococcus pyogenes assessed as growth inhibition after 16 to 18 hr by serial plate dilution method; assay type: functional
[14] = test system: Mycolicibacterium smegmatis; test: Antitubercular activity against Mycobacterium smegmatis ATCC 19420 assessed as growth inhibition at 1 to 100 ug/mL after 7 days by resazurin reduction test; assay type: functional; conditions: ATCC 19420, 168 h
[15] = test system: Mycolicibacterium fortuitum; test: Antitubercular activity against Mycobacterium fortuitum ATCC 19542 assessed as growth inhibition at 1 to 100 ug/mL after 7 days by resazurin reduction test; assay type: functional; conditions: ATCC 19542, 168 h
[16] = test system: Mycobacterium tuberculosis; test: Antitubercular activity against Mycobacterium tuberculosis H37Rv ATCC 27294 assessed as growth inhibition at 1 to 100 ug/mL after 7 days by resazurin reduction test; assay type: functional; conditions: for MIC: Mycobacterium tuberculosis, H37Rv ATCC 27294, 168 h
Candida albicans [17] = test: Antifungal activity against Candida albicans assessed as growth inhibition at […] to […] ug/ml after 3 to 4 days by agar well diffusion method; assay type: functional
[18] = test system: Trichophyton mentagrophytes; test: Antifungal activity against Trichophyton mentagrophytes assessed as growth inhibition at […] to […] ug/ml after 3 to 4 days by agar well diffusion method; assay type: functional
Klebsiella pneumoniae [19] = test: Antibacterial activity against Klebsiella pneumoniae assessed as growth inhibition after 16 to 18 hr by serial plate dilution method; assay type: functional
Pseudomonas aeruginosa [20] = test: Antibacterial activity against Pseudomonas aeruginosa ATCC 27853 assessed as growth inhibition after 16 to 18 hr by serial plate dilution method; assay type: functional
Escherichia coli [21] = test: Antibacterial activity against Escherichia coli […] assessed as growth inhibition after 16 to 18 hr by serial plate dilution method; assay type: functional
Staphylococcus aureus [22] = test: Antibacterial activity against Staphylococcus aureus ATCC 25923 assessed as growth inhibition after 16 to 18 hr by serial plate dilution method; assay type: functional
Escherichia coli [23] = assay type: functional, ATCC 24922
Description: Antibacterial activity against Escherichia coli ATCC 24922 assessed as growth inhibition at 1.56 to 25 ug/ml after 3 to 4 days by agar well diffusion method

[24] = test system: Mycobacterium tuberculosis; test: Antitubercular activity against Mycobacterium tuberculosis H37Rv ATCC 27294 assessed as growth inhibition at 0.3125 to 5 ug/mL after 7 days by resazurin reduction test; assay type: functional; conditions: H37Rv ATCC 27294, 168 h

Row | SMILES | diameter of the inhibition zone (DIZ) (Talaromyces marneffei [1]) [mm] | diameter of the inhibition zone (DIZ) (Aspergillus fumigatus [2]) [mm] | diameter of the inhibition zone (DIZ) (Aspergillus flavus [3]) [mm] | MIC (Candida albicans [4]) [µg/mL] | MIC [5] [µg/mL] | MIC (Talaromyces marneffei [6]) [µg/mL] | MIC (Aspergillus fumigatus [7]) [µg/mL] | MIC (Aspergillus flavus [8]) [µg/mL] | diameter of the inhibition zone (DIZ) (Streptococcus pyogenes [9]) [mm] | diameter of the inhibition zone (DIZ) (Klebsiella pneumoniae [10]) [mm] | diameter of the inhibition zone (DIZ) (Pseudomonas aeruginosa [11]) [mm] | diameter of the inhibition zone (DIZ) (Staphylococcus aureus [12]) [mm] | MIC (Streptococcus pyogenes [13]) [µg/mL] | MIC [14] [µg/mL] | MIC [15] [µg/mL] | growth inhibition (GI) [16] [%] | MIC [16] [µg/mL] | diameter of the inhibition zone (DIZ) (Candida albicans [17]) [mm] | diameter of the inhibition zone (DIZ) [18] [mm] | MIC (Klebsiella pneumoniae [19]) [µg/mL] | further results
1 | Cn1cc(CCCNC(=O)CCc2c[nH]c3ccc(Cl)cc23)c2cc(Cl)ccc21 | <10 | 16 | <10 | 25 (≈ 58.4 µM) | 6.25 (≈ 14.6 µM) | 25 (≈ 58.4 µM) | 6.25 (≈ 14.6 µM) | 25 (≈ 58.4 µM) | <10 | 11 | 11 | <10 | 25 (≈ 58.4 µM) | > 100 | > 100 | 0 | > 100 | <10 | 16 | 12.5 (≈ 29.2 µM) | MIC (Pseudomonas aeruginosa [20]): 12.5 µg/mL (≈ 29.2 µM); MIC (Escherichia coli [21]): 12.5 µg/mL (≈ 29.2 µM); MIC (Staphylococcus aureus [22]): 25 µg/mL (≈ 58.4 µM); diameter of the inhibition zone (DIZ) (Escherichia coli [23]): 11 mm
2 | Cc1c(CNC(=O)CCc2c[nH]c3ccc(Cl)cc23)c2cc(OC(F)(F)F)ccc2n1C | 11 | 11 | 11 | 6.25 (≈ 13.5 µM) | 12.5 (≈ 26.9 µM) | 12.5 (≈ 26.9 µM) | 12.5 (≈ 26.9 µM) | 12.5 (≈ 26.9 µM) | <10 | <10 | 16 | 16 | 25 (≈ 53.9 µM) | 10 (≈ 21.6 µM) | > 100 | <90 | > 100 | 16 | 11 | 25 (≈ 53.9 µM) | MIC [24]: 5 µg/mL (≈ 10.8 µM); MIC (Pseudomonas aeruginosa [20]): 6.25 µg/mL (≈ 13.5 µM); MIC (Escherichia coli [21]): 12.5 µg/mL (≈ 26.9 µM); MIC (Staphylococcus aureus [22]): 6.25 µg/mL (≈ 13.5 µM); diameter of the inhibition zone (DIZ) (Escherichia coli [23]): 11 mm
3 | Cc1c(CNC(=O)CCc2cn(C)c3ccc(Cl)cc23)c2cc(OC(F)(F)F)ccc2n1C | <10 | 16 | <10 | 12.5 (≈ 26.2 µM) | 6.25 (≈ 13.1 µM) | 25 (≈ 52.3 µM) | 6.25 (≈ 13.1 µM) | 25 (≈ 52.3 µM) | <10 | 11 | <10 | 11 | 25 (≈ 52.3 µM) | 10 (≈ 20.9 µM) | > 100 | <90 | > 100 | 11 | 16 | 12.5 (≈ 26.2 µM) | MIC [24]: 5 µg/mL (≈ 10.5 µM); MIC (Pseudomonas aeruginosa [20]): 25 µg/mL (≈ 52.3 µM); MIC (Escherichia coli [21]): 12.5 µg/mL (≈ 26.2 µM); MIC (Staphylococcus aureus [22]): 12.5 µg/mL (≈ 26.2 µM); diameter of the inhibition zone (DIZ) (Escherichia coli [23]): 11 mm
4 | Cc1cc(C2CCCCC2)n(O)c(=O)c1.NCCO [CICLOPIROX OLAMINE] | 20 | 25 | 25 | 6.25 | 6.25 | 6.25 | 6.25 | 6.25 |  |  |  |  |  |  |  |  |  | 20 | 27 |  | 
5 | O=C(O)c1cn(C2CC2)c2cc(N3CCNCC3)c(F)cc2c1=O [CIPROFLOXACIN] |  |  |  |  |  |  |  |  | 23 | 21 | 16 | 30 | 6.25 (≈ 18.9 µM) |  |  |  |  |  |  | 1.56 (≈ 4.71 µM) | 
